US20130078317A1, “ZINC-CONTAINING COMPOSITIONS FOR THE TREATMENT OF DISEASES, ILLNESSES AND SYNDROMES ASSOCIATED WITH EXPOSURE TO PORE FORMING TOXINS” (priority 2009, published 2013)

Experiments:
[1] = target: T1, Carybdea alata hemolysin (Alatina alata, UniProt Q9GNN8); assay: Hemolysis induced by Carybdea alata hemolysin in 2% RBC; assay type: cell-based; conditions: 5 mM zinc gluconate
T1 sequence (Q9GNN8 31-463 limits assumed): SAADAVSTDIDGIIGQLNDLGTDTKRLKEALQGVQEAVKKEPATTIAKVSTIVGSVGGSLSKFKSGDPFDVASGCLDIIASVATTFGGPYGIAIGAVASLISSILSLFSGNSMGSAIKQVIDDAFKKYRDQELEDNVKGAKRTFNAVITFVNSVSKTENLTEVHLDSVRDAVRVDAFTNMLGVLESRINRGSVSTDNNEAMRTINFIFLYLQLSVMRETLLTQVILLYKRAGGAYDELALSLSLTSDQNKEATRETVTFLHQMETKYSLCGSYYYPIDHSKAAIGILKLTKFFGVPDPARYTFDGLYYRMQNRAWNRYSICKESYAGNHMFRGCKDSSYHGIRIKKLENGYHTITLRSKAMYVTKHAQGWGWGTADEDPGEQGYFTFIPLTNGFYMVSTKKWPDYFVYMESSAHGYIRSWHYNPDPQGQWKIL

[2] = target: T2, purified hemolysin from Carybdea alata (Alatina alata, UniProt Q9GNN8); assay: Potassium efflux induced by purified hemolysin from Carybdea alata in isolated red blood cells; assay type: cell-based; conditions: 2% RBC; FIG. 4 legend
T2 sequence (Q9GNN8 31-463 limits assumed): T1 sequence (Q9GNN8 31-463 limits assumed)

zinc gluconate
hemolysis induced by Carybdea alata hemolysin [1]: substantially inhibited
potassium efflux induced by purified hemolysin from Carybdea alata [2]: inhibits
